The values that follow come from patent publication US20070059364A1, “Active substance combination comprising a compound with npy receptor affinity and a compound with 5-ht6 receptor affinity” (Laboratorios Del Dr. Esteve S.A., priority 2003, published 2007).

By melting point is commonly meant the temperature, or range, at which the solid turns liquid. For the compound `Cc1ccc(S(=O)(=O)Nc2ccc3c(ccn3CCN(C)C)c2)cc1` [Example 8e, N-[1-(2-dimethylaminoethyl)-1H-indole-5-yl]-4-methylbenzenesulfonamide], the melting point was in the range of 126 to 128 °C.
`CN(C)CCn1ccc2ccc(NS(=O)(=O)c3cc(Cl)cc(Cl)c3)cc21` [Example 8f, N-[1-(2-Dimethylaminoethyl)-1H-indol-6-yl]-3,5-dichlorobenzenesulfonamide] yielded a melting point of 150 to 159 °C.
As to `O=S(=O)(CCc1cccc2ccccc12)Nc1cccc2ccn(CCN3CCCC3)c12` [Example 8g, 2-(naphth-1-yl)-N-(1-(2-(pyrrolidin-1-yl)ethyl)-1H-indol-7-yl)ethansulfonamide], the melting point was in the range of 46 to 49 °C.
With `CN(C)CCn1ccc2cc(NS(=O)(=O)c3ccc(Cl)s3)ccc21` [Example 9e, N-[1-(2-dimethylaminoethyl)-1H-indole-5-yl]-5-chlorothiophene-2-sulfonamide] the figure was 145 to 147 °C; with `CN(C)CCn1ccc2cc(NS(=O)(=O)c3c(Cl)nc4sccn34)ccc21` [Example 11e, N-[1-(2-dimethylaminoethyl)-1H-indole-5-yl]-6-chloroimidazo[2,1-b]thiazole-5-sulfonamide], 50 to 52 °C.
To `CN1CCC(c2c[nH]c3ccc(NS(=O)(=O)c4cccc5ccccc45)cc23)CC1` [Example 12c, N-[3-(1-methylpiperidin-4-yl)-1H-indol-5-yl]naphthalene-1-sulphonamide] belongs 254 to 256 °C.
Regarding `CN(C)CCn1ccc2cc(NS(=O)(=O)c3cc(Cl)cc(Cl)c3)ccc21` [Example 12e, N-[1-(2-dimethylaminoethyl)-1H-indole-5-yl]-3,5-dichlorobenzenesulfonamide], the melting point lay within 124 to 126 °C.
To `O=S(=O)(Nc1ccc2ccn(CCN3CCCC3)c2c1)c1c(Cl)nc2sccn12` [Example 12f, 6-Chloro-N-[1-[2-(pyrrolidin-1-yl)ethyl]-1H-indol-6-yl]-imidazo[2,1-b]thiazole-5-sulfonamide] belongs 53 to 57 °C; to `CN1CCC(c2c[nH]c3ccc(NS(=O)(=O)c4cccc5ccccc45)cc23)CC1.Cl` [Example 13c, N-[3-(1-methylpiperidin-4-yl)-1H-indol-5-yl]naphthalene-1-sulphonamide hydrochloride], 212 °C (dec.); to `CN(C)CCn1ccc2cc(NS(=O)(=O)c3cccc(Br)c3)ccc21` [Example 13e, N-[1-(2-dimethylaminoethyl)-1H-indole-5-yl]-3-bromobenzenesulfonamide], 114 to 116 °C.
In turn, `O=S(=O)(Nc1ccc2ccn(CCN3CCCC3)c2c1)c1ccc(-c2ccccc2)cc1` [Example 13f, 4-Phenyl-N-(1-(2-(pyrrolidin-1-yl)ethyl)-1H-indol-6-yl)-benzenesulfonamide] showed a melting point of 178 to 181 °C.
`CN1CCC(c2c[nH]c3ccc(NS(=O)(=O)c4ccc(Cl)s4)cc23)CC1` [Example 14c, N-[3-(1-methylpiperidin-4-yl)-1H-indol-5-yl]-5-chlorothiophene-2-sulphonamide]: the melting point is 284 °C (dec.).
Compound `CN(C)CCn1ccc2cc(NS(=O)(=O)c3cccc([N+](=O)[O-])c3)ccc21` [Example 14e, N-[1-(2-dimethylaminoethyl)-1H-indole-5-yl]-3-nitrobenzenesulfonamide] registered a melting point of 138 to 140 °C.
In the case of `CN1CCC(c2c[nH]c3ccc(NS(=O)(=O)c4ccc(-c5ccccc5)cc4)cc23)CC1` [Example 15c, N-[3-(1-methylpiperidin-4-yl)-1H-indol-5-yl]-4-phenylbenzenesulphonamide], the melting point was 247 to 248 °C.
To `CN(C)CCn1ccc2cc(NS(=O)(=O)Cc3ccccc3)ccc21` [Example 15e, N-[1-(2-dimethylaminoethyl)-1H-indole-5-yl]-1-phenylmethanesulfonamide] belongs 163 to 166 °C; to `O=S(=O)(Nc1ccc2ccn(CCN3CCCC3)c2c1)c1ccc(Oc2ccccc2)cc1` [Example 15f, 4-Phenoxy-N-(1-(2-(pyrrolidin-1-yl)ethyl)-1H-indol-6-yl)-benzenesulfonamide], 59 to 62 °C.
With `CN1CCC(c2c[nH]c3ccc(NS(=O)(=O)c4cccc5cccnc45)cc23)CC1` [Example 16c, N-[3-(1-methylpiperidin-4-yl)-1H-indol-5-yl]quinoline-8-sulphonamide] the figure was 280 °C (dec.); with `O=S(=O)(Nc1ccc2c(ccn2CCN2CCCC2)c1)c1ccc2ccccc2c1` [Example 16e, N-[1-(2-pyrrolidine-1-yl-ethyl)-1H-indole-5-yl]-naphthalene-2-sulfonamide], 138 to 140 °C.
To `CCN(CC)CCc1c[nH]c2ccc(NS(=O)(=O)c3ccc4ccccc4c3)cc12` [Example 17c, N-[3-(2-diethylaminoethyl)-1H-indol-5-yl]naphthalene-2-sulphonamide] belongs 172 to 173 °C.
`O=S(=O)(Nc1ccc2c(ccn2CCN2CCCC2)c1)c1cccc2ccccc12` [Example 17e, N-[1-(2-pyrrolidine-1-yl-ethyl)-1H-indole-5-yl]-naphthalene-1-sulfonamide] yielded a melting point of 186 to 189 °C.
In turn, `Cc1c(S(=O)(=O)Nc2ccc3c(ccn3CCN3CCCC3)c2)sc2ccc(Cl)cc12` [Example 18e, N-[1-(2-pyrrolidine-1-yl-ethyl)-1H-indole-5-yl]-5-chloro-3-methylbenzo[b]thiophene-2-sulfonamide] showed a melting point of 156 to 158 °C.
With `Cc1c(S(=O)(=O)Nc2ccc3[nH]cc(CN4CCN(C)CC4)c3c2)sc2ccc(Cl)cc12` [Example 19c, N-[3-(4-methylpiperazin-1-yl)methyl-1H-indol-5-yl]-5-chloro-3-methylbenzo[b]thiophene-2-sulphonamide], the melting point is 230 °C (dec.).
With `CN(C)CCn1ccc2cc(NS(=O)(=O)c3cc(Cl)c(Cl)s3)ccc21` [Example 20e, N-[1-(2-dimethylaminoethyl)-1H-indole-5-yl]-4,5-dichlorothiophene-2-sulfonamide], the melting point lay in the range of 120 to 123 °C.
With `CC(=O)c1ccc(S(=O)(=O)Nc2ccc3c(ccn3CCN(C)C)c2)cc1` [Example 21e, N-[1-(2-dimethylaminoethyl)-1H-indole-5-yl]-4-acetylbenzenesulfonamide] the figure was 175 °C (dec.); with `CN(C)CCn1ccc2cc(NS(=O)(=O)c3ccc(Br)cc3)ccc21` [Example 22e, N-[1-(2-dimethylaminoethyl)-1H-indole-5-yl]-4-bromobenzenesulfonamide], 114 to 117 °C.
With `COc1ccc(S(=O)(=O)Nc2ccc3c(ccn3CCN(C)C)c2)cc1` [Example 23e, N-[1-(2-dimethylaminoethyl)-1H-indole-5-yl]-4-methoxybenzenesulfonamide] the figure was 141 to 144 °C.
In turn, `CN(C)CCn1ccc2cc(NS(=O)(=O)c3ccc([N+](=O)[O-])cc3)ccc21` [Example 25e, N-[1-(2-dimethylaminoethyl)-1H-indole-5-yl]-4-nitrobenzenesulfonamide] gave a melting point of 60 to 64 °C.
Compound `CN(C)CCn1ccc2cc(NS(=O)(=O)c3ccc(F)cc3)ccc21` [Example 26e, N-[1-(2-dimethylaminoethyl)-1H-indole-5-yl]-4-fluorobenzenesulfonamide] gave a melting point of 138 to 140 °C.
